Patent US20240018120A1, “MAGL INHIBITORS” (H. LUNDBECK A/S, priority 2020, published 2024)

Key:
MAGL [1] = target: T1, MAGL (Homo sapiens, UniProt Q99685); test: In vitro competitive activity-based protein profiling, PC3 human cell membrane proteomes; assay type: biochemical; set-up: endogenous in cells; host or cells: PC3 human cells (membrane proteome); details: human PC3 membrane proteome; for inhibition at 1 µM: read-out: MAGL % inh. 1 μM (human PC3)
T1 sequence (Q99685 1-303): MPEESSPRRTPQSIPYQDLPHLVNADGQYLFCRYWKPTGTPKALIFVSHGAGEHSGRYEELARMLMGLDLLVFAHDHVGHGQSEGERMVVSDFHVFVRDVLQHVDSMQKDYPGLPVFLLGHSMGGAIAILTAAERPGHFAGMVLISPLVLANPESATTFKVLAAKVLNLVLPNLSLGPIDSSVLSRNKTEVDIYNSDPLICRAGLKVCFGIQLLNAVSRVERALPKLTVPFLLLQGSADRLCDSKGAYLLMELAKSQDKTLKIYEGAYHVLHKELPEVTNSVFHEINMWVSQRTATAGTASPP
Method in brief: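 Competitive ABPP in PC3 membrane proteome (2.0 mg/mL protein): inhibitors preincubated 30 min at 37° C, then JW912-Bodipy probe added for 30 min at room temperature. MAGL band fluorescence after SDS-PAGE normalised to DMSO; IC50 from 4-parameter sigmoidal fit.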

[2] = tested on: cryopreserved human hepatocytes; test: In vitro human hepatocyte stability; assay type: in vitro ADME; details: human hepatocytes 0.5×10^6 cells/mL, 1 μM
Description: The metabolic stability of test articles (1 μM) in commercially sourced, pooled donor, cryopreserved human hepatocytes (0.5×10^6 cells/mL) was determined in duplicate. The CLint reactions (250 μL) were initiated by addition of test compound. Aliquots (25 μL) were taken at 0, 15, 30, 45, 60, 90, 120 and 240 minutes and then protein crashed with ice-cold acetonitrile containing internal standard then centrifuged (3220 g for 25 minutes). Supernatant was used for LC-MS/MS analysis. The in vitro half-life (in vitro t½) was determined from the slope value: in vitro t1/2=−0.693/k. Conversion of the in vitro t1/2 (in min) into the scale-up unbound intrinsic clearance (Scaled-up unbound CLint, in mL/min/kg) was done using the following equation (mean of duplicate determinations), with data shown in Table 5: Scaled-up unbound CLint=kV/N×scaling factor. V=incubation volume (0.25 mL); N=number of hepatocytes per well ([…]). Scaling factors for in vivo intrinsic clearance prediction are listed below: […]

MAGL [3] = target: T1, MAGL; test: In vitro competitive substrate hydrolysis enzyme activity assay (pNPA), HEK293 cell lysates; assay type: biochemical; set-up: expressed in transfected cells; host or cells: HEK293; details: HEK293 lysate
Method in brief: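 Lysates of HEK293 cells expressing human MAGL (~1.2 μg protein) preincubated 30 min at 25° C with inhibitor in 50 mM HEPES pH 7.0, 200 mM KCl, 1 mM EDTA. pNPA substrate then added (2× stock 2.5 mM), and A405 followed for 20 min at 25° C. Rates normalized to DMSO, and IC50 from 4-parameter fit.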

SMILES | inhibition at 1 µM (MAGL [1]) | IC50 (MAGL [1]) | Scaled-up unbound CLint [2] | IC50 (MAGL [3])
O=C(Nc1cccnc1)[C@H]1CC12CCN(C(=O)OC(C(F)(F)F)C(F)(F)F)CC2 (single isomer, unassigned) [Example 2] | 100% | 0.002 µM | 34.8 mL/min/kg | 0.00289 µM
O=C(Nc1ccc(-n2cccn2)nc1)C1CC12CCN(C(=O)OC(C(F)(F)F)C(F)(F)F)CC2 (single isomer, unassigned) [Example 29, 1,1,1,3,3,3-Hexafluoropropan-2-yl (R or S)-1-((6-(1H-pyrazol-1-yl)pyridin-3-yl)carbamoyl)-6-azaspiro[2.5]octane-6-carboxylate] |  | 0.003 µM | 32.74 mL/min/kg | 
O=C(Nc1cncc(F)c1)C1CC12CCN(C(=O)OC(C(F)(F)F)C(F)(F)F)CC2 (single isomer, unassigned) [Example 40, 1,1,1,3,3,3-hexafluoropropan-2-yl (R or S)-1-((5-fluoropyridin-3-yl)carbamoyl)-6-azaspiro[2.5]octane-6-carboxylate] |  | 0.0027 µM | 43.25 mL/min/kg | 0.00343 µM
O=C(Nc1cncnc1)C1CC12CCN(C(=O)OC(C(F)(F)F)C(F)(F)F)CC2 (single isomer, unassigned) [Example 96, 1,1,1,3,3,3-hexafluoropropan-2-yl (R or S)-1-(pyrimidin-5-ylcarbamoyl)-6-azaspiro[2.5]octane-6-carboxylate] | 100% | 0.0193 µM | 17.09 mL/min/kg | 0.0489 µM
Cc1cnc(NC(=O)C2CC23CCN(C(=O)OC(C(F)(F)F)C(F)(F)F)CC3)cn1 (single isomer, unassigned) [Example 112, 1,1,1,3,3,3-hexafluoropropan-2-yl (R or S)-1-((5-methylpyrazin-2-yl)carbamoyl)-6-azaspiro[2.5]octane-6-carboxylate] |  | 0.0042 µM | 9.59 mL/min/kg | 
O=C(NCC1CCOCC1)[C@H]1CC12CCN(C(=O)OC(C(F)(F)F)C(F)(F)F)CC2 (single isomer, unassigned) [Example 117] |  | 0.0047 µM | 20.55 mL/min/kg | 
Cn1ccc(NC(=O)C2CC23CCN(C(=O)OC(C(F)(F)F)C(F)(F)F)CC3)n1 (single isomer, unassigned) [Example 127, 1,1,1,3,3,3-hexafluoropropan-2-yl (R or S)-1-((1-methyl-1H-pyrazol-3-yl)carbamoyl)-6-azaspiro[2.5]octane-6-carboxylate] |  | 0.019 µM | 9.51 mL/min/kg | 
CC1(NC(=O)C2CC23CCN(C(=O)OC(C(F)(F)F)C(F)(F)F)CC3)CCOCC1 (single isomer, unassigned) [Example 132, 1,1,1,3,3,3-hexafluoropropan-2-yl (R or S)-1-((4-methyltetrahydro-2H-pyran-4-yl)carbamoyl)-6-azaspiro[2.5]octane-6-carboxylate] |  | 0.027 µM | 44.18 mL/min/kg | 
Cn1nccc1NC(=O)C1CC12CCN(C(=O)OC(C(F)(F)F)C(F)(F)F)CC2 (single isomer, unassigned) [Example 135, 1,1,1,3,3,3-hexafluoropropan-2-yl (R or S)-1-((1-methyl-1H-pyrazol-5-yl)carbamoyl)-6-azaspiro[2.5]octane-6-carboxylate] |  | 0.015 µM | 16.79 mL/min/kg | 
O=C(Nc1nccs1)C1CC12CCN(C(=O)OC(C(F)(F)F)C(F)(F)F)CC2 (single isomer, unassigned) [Example 138, 1,1,1,3,3,3-hexafluoropropan-2-yl (R or S)-1-(thiazol-2-ylcarbamoyl)-6-azaspiro[2.5]octane-6-carboxylate] |  | 0.001 µM | 40.48 mL/min/kg | 
O=C(NCc1ccccc1)[C@H]1CC12CCN(C(=O)OC(C(F)(F)F)C(F)(F)F)CC2 (single isomer, unassigned) [Example 150] |  | 0.0031 µM | 88.79 mL/min/kg | 
CC1(CNC(=O)C2CC23CCN(C(=O)OC(C(F)(F)F)C(F)(F)F)CC3)CCOCC1 (single isomer, unassigned) [Example 168, 1,1,1,3,3,3-hexafluoropropan-2-yl (R or S)-1-(((4-methyltetrahydro-2H-pyran-4-yl)methyl)carbamoyl)-6-azaspiro[2.5]octane-6-carboxylate] |  | 0.0074 µM | 61.36 mL/min/kg | 
CS(=O)(=O)Nc1ccc(NC(=O)C2CC23CCN(C(=O)OC(C(F)(F)F)C(F)(F)F)CC3)cn1 (single isomer, unassigned) [Example 181, 1,1,1,3,3,3-hexafluoropropan-2-yl (R or S)-1-((6-(methylsulfonamido)pyridin-3-yl)carbamoyl)-6-azaspiro[2.5]octane-6-carboxylate] |  | 0.0305 µM | 1.94 mL/min/kg | 
